# Test results reported in US9951028B2, “Agricultural chemicals” (REDAG CROP PROTECTION LTD, priority 2013, dated 2018).
# Legend:
# [1] = tested on: common chickweed, Stellaria media; experiment: Herbicidal efficacy screen, potter tower spray, necrosis assessed; format: in vivo
# Experimental: (§1) Compounds 22, 23 and 24 were screened for herbicidal efficacy against target plants: garden cress, Lepidium sativum, common chickweed, Stellaria media, and white mustard […] alba Plants were obtained as seeds and were grown to the 2-4 true leaf stage. Plants were grown under laboratory conditions, individually in seed trays. Each plant (in an approximately 3 cm diameter plug) was then detached from the tray for spraying. The compounds were screened at a range of five concentrations, diluted in acetone and TweenTM. A carrier only control was also conducted. Treatments were applied directly onto the plants, using a potter tower, at a specified application rate. One plant of each species was sprayed using a potter tower. The 3 different types of plants were placed on a 10 cm diameter platform directly beneath the potter sprayer and sprayed simultaneously. The growth of the plants and any Phytotoxicity effects were then assessed at intervals over 21 days, according to EPPO guideline PP1/135. Five replicas were performed for each treatment, for each species. In the tables below C represents a percentage increase in necrosis relative to the control of 0.1-50; B represents a percentage inhibition of 50-80; and A represents a percentage inhibition of 80-100.
# [2] = tested on: garden cress, Lepidium sativum; experiment: as above; format: in vivo
# Experimental: as §1
# [3] = 12.5 g/ha, day 1 post application
# [4] = 12.5 g/ha, day 2 post application
# [5] = 12.5 g/ha, day 3 post application
# [6] = 12.5 g/ha, day 4 post application
# [7] = 12.5 g/ha, day 5 post application
# [8] = 12.5 g/ha, day 7 post application
# [9] = 12.5 g/ha, day 10 post application
# [10] = 25 g/ha, day 1 post application
# [11] = 25 g/ha, day 2 post application
# [12] = 25 g/ha, day 3 post application
# [13] = 25 g/ha, day 4 post application
# [14] = 25 g/ha, day 5 post application
# [15] = 25 g/ha, day 7 post application
# [16] = 25 g/ha, day 10 post application
# [17] = 50 g/ha, day 1 post application
# [18] = 50 g/ha, day 2 post application
# [19] = 50 g/ha, day 3 post application
smiles,measurement,setting,value
"CC(C)N(C)S(=O)(=O)NCc1cc(-n2c(=O)cc(C(F)(F)F)n(C)c2=O)c(F)cc1Cl [Compound 23, 1-[4-Chloro-2-fluoro-5-[[(isopropyl(methyl)sulfamoyl)amino]methyl]phenyl]-3-methyl-2,6-dioxo-4-(trifluoromethyl)pyrimidine]",Average of necrosis,[1]; [3],C (C represents a percentage increase in necrosis relative to the control of 0.1-50)
same,Average of necrosis,[1]; [4],C (C represents a percentage increase in necrosis relative to the control of 0.1-50)
same,Average of necrosis,[1]; [5],C (C represents a percentage increase in necrosis relative to the control of 0.1-50)
same,Average of necrosis,[1]; [6],C (C represents a percentage increase in necrosis relative to the control of 0.1-50)
same,Average of necrosis,[1]; [7],B (B represents a percentage inhibition of 50-80)
same,Average of necrosis,[1]; [8],B (B represents a percentage inhibition of 50-80)
same,Average of necrosis,[1]; [9],A (A represents a percentage inhibition of 80-100)
same,Average of necrosis,[1]; [10],C (C represents a percentage increase in necrosis relative to the control of 0.1-50)
same,Average of necrosis,[1]; [11],C (C represents a percentage increase in necrosis relative to the control of 0.1-50)
same,Average of necrosis,[1]; [12],C (C represents a percentage increase in necrosis relative to the control of 0.1-50)
same,Average of necrosis,[1]; [13],C (C represents a percentage increase in necrosis relative to the control of 0.1-50)
same,Average of necrosis,[1]; [14],B (B represents a percentage inhibition of 50-80)
same,Average of necrosis,[1]; [15],B (B represents a percentage inhibition of 50-80)
same,Average of necrosis,[1]; [16],B (B represents a percentage inhibition of 50-80)
same,Average of necrosis,[1]; [17],C (C represents a percentage increase in necrosis relative to the control of 0.1-50)
same,Average of necrosis,[1]; [18],C (C represents a percentage increase in necrosis relative to the control of 0.1-50)
same,Average of necrosis,[1]; [19],C (C represents a percentage increase in necrosis relative to the control of 0.1-50)
same,Average of necrosis,"[1]; 50 g/ha, day 4 post application",C (C represents a percentage increase in necrosis relative to the control of 0.1-50)
same,Average of necrosis,"[1]; 50 g/ha, day 5 post application",B (B represents a percentage inhibition of 50-80)
same,Average of necrosis,"[1]; 50 g/ha, day 7 post application",B (B represents a percentage inhibition of 50-80)
same,Average of necrosis,"[1]; 50 g/ha, day 10 post application",B (B represents a percentage inhibition of 50-80)
same,Average of necrosis,"[1]; 100 g/ha, day 1 post application",C (C represents a percentage increase in necrosis relative to the control of 0.1-50)
same,Average of necrosis,"[1]; 100 g/ha, day 2 post application",C (C represents a percentage increase in necrosis relative to the control of 0.1-50)
same,Average of necrosis,"[1]; 100 g/ha, day 3 post application",C (C represents a percentage increase in necrosis relative to the control of 0.1-50)
same,Average of necrosis,"[1]; 100 g/ha, day 4 post application",C (C represents a percentage increase in necrosis relative to the control of 0.1-50)
same,Average of necrosis,"[1]; 100 g/ha, day 5 post application",B (B represents a percentage inhibition of 50-80)
same,Average of necrosis,"[1]; 100 g/ha, day 7 post application",B (B represents a percentage inhibition of 50-80)
same,Average of necrosis,"[1]; 100 g/ha, day 10 post application",A (A represents a percentage inhibition of 80-100)
same,Average of necrosis,"[1]; 200 g/ha, day 1 post application",C (C represents a percentage increase in necrosis relative to the control of 0.1-50)
same,Average of necrosis,"[1]; 200 g/ha, day 2 post application",C (C represents a percentage increase in necrosis relative to the control of 0.1-50)
same,Average of necrosis,"[1]; 200 g/ha, day 3 post application",C (C represents a percentage increase in necrosis relative to the control of 0.1-50)
same,Average of necrosis,"[1]; 200 g/ha, day 4 post application",C (C represents a percentage increase in necrosis relative to the control of 0.1-50)
same,Average of necrosis,"[1]; 200 g/ha, day 5 post application",B (B represents a percentage inhibition of 50-80)
same,Average of necrosis,"[1]; 200 g/ha, day 7 post application",B (B represents a percentage inhibition of 50-80)
same,Average of necrosis,"[1]; 200 g/ha, day 10 post application",B (B represents a percentage inhibition of 50-80)
same,Average of necrosis,[2]; [3],C (C represents a percentage increase in necrosis relative to the control of 0.1-50)
same,Average of necrosis,[2]; [4],C (C represents a percentage increase in necrosis relative to the control of 0.1-50)
same,Average of necrosis,[2]; [5],C (C represents a percentage increase in necrosis relative to the control of 0.1-50)
same,Average of necrosis,[2]; [6],C (C represents a percentage increase in necrosis relative to the control of 0.1-50)
same,Average of necrosis,[2]; [7],C (C represents a percentage increase in necrosis relative to the control of 0.1-50)
same,Average of necrosis,[2]; [8],C (C represents a percentage increase in necrosis relative to the control of 0.1-50)
same,Average of necrosis,[2]; [9],C (C represents a percentage increase in necrosis relative to the control of 0.1-50)
same,Average of necrosis,[2]; [10],C (C represents a percentage increase in necrosis relative to the control of 0.1-50)
same,Average of necrosis,[2]; [11],C (C represents a percentage increase in necrosis relative to the control of 0.1-50)
same,Average of necrosis,[2]; [12],C (C represents a percentage increase in necrosis relative to the control of 0.1-50)
same,Average of necrosis,[2]; [13],C (C represents a percentage increase in necrosis relative to the control of 0.1-50)
same,Average of necrosis,[2]; [14],C (C represents a percentage increase in necrosis relative to the control of 0.1-50)
same,Average of necrosis,[2]; [15],C (C represents a percentage increase in necrosis relative to the control of 0.1-50)
same,Average of necrosis,[2]; [16],B (B represents a percentage inhibition of 50-80)
same,Average of necrosis,[2]; [17],C (C represents a percentage increase in necrosis relative to the control of 0.1-50)
same,Average of necrosis,[2]; [18],C (C represents a percentage increase in necrosis relative to the control of 0.1-50)
same,Average of necrosis,[2]; [19],C (C represents a percentage increase in necrosis relative to the control of 0.1-50)
